From PubChem BioAssay (NCI)
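Step 1: Grow cells in 96-well plates. Step 2: Expose to compound for 48 hours at 5 concentrations. Step 3: Interpolate endpoints linearly; if unreached, use highest concentration. GI50 marks 50% less growth. At the TGI there is no net growth.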

What was measured:
Experiment in all cases: inhibition of tumour cell growth, NCI panel, 48 h
[1] = system: CAKI-1 renal
[2] = system: SK-OV-3 ovarian
[3] = system: NCI-H23 lung
[4] = system: PC-3 prostate
[5] = system: T-47D breast
[6] = system: K-562 leukemia
[7] = system: SF-539 CNS
[8] = system: NCI-H226 lung
[9] = system: SK-MEL-5 melanoma
[10] = system: HL-60(TB) leukemia
[11] = system: A498 renal
[12] = system: EKVX NSCLC
[13] = system: MCF7 breast
[14] = system: OVCAR-5 ovarian
[15] = system: SR leukemia
[16] = system: OVCAR-8 ovarian
[17] = system: 786-0 renal
[18] = system: SF-295 CNS
[19] = system: HOP-62 NSCLC
[20] = system: ACHN renal
[21] = system: TK-10 renal
[22] = system: BT-549 breast
[23] = system: UACC-62 melanoma
[24] = system: IGROV1 ovarian
[25] = system: NCI-H460 lung
[26] = system: SK-MEL-2 melanoma
[27] = system: SNB-19 CNS
[28] = system: A549 NSCLC
[29] = system: HCT-116 colon
[30] = system: MDA-MB-435
[31] = system: HCT-15 colon
[32] = system: MOLT-4 leukemia
[33] = system: HT29 colon
[34] = system: SW-620 colon
[35] = system: RPMI-8226 leukemia
[36] = system: HS 578T breast
[37] = system: UACC-257 melanoma
[38] = system: UO-31 renal
[39] = system: SN12C renal
[40] = system: M14 melanoma
[41] = system: OVCAR-4 ovarian
[42] = system: RXF 393 renal
[43] = system: SF-268 CNS
[44] = system: U251 CNS
[45] = system: SK-MEL-28 melanoma
[46] = system: OVCAR-3 ovarian
[47] = system: DU-145 prostate
[48] = system: HCC-2998 colon
[49] = system: KM12 colon
[50] = system: NCI/ADR-RES ovarian
[51] = system: HOP-92 NSCLC
[52] = system: NCI-H522 lung
[53] = system: CCRF-CEM leukemia
[54] = system: MDA-MB-231 breast
[55] = system: SNB-75 CNS
[56] = system: COLO 205 colon
[57] = system: LOX IMVI melanoma
[58] = system: MALME-3M melanoma

COc1cc(C)c(NC(=O)CN(C)C)cc1Nc1nc(Nc2cccc(F)c2C(N)=O)c2cc[nH]c2n1 gave a GI50 [1] of 3.68 µM, a TGI [1] of 9.95 µM and a GI50 [2] of 2.67 µM. For the same compound, the TGI [2] was 6.29 µM, the GI50 [3] was 0.586 µM and the TGI [3] was 6.02 µM. For the same compound, the GI50 [4] was 2.21 µM, the TGI [4] was 7.56 µM and the GI50 [5] was 3.81 µM. For the same compound, the TGI [5] was 8.38 µM, the GI50 [6] was 1.41 µM and the TGI [6] was 6.38 µM. The GI50 [7] was 3.05 µM, the TGI [7] was 7.07 µM and the GI50 [8] was 2.6 µM. It also gave a TGI [8] of 7.24 µM, a GI50 [9] of 0.69 µM and a TGI [9] of 4.36 µM. The GI50 [10] was 0.0205 µM, the TGI [10] was 0.875 µM and the GI50 [11] was 1.25 µM. The TGI [11] was 6.02 µM, the GI50 [12] was 0.937 µM and the TGI [12] was 12.5 µM. The GI50 [13] was 0.0138 µM, the TGI [13] was 2.9 µM and the GI50 [14] was 0.0336 µM. It also gave a TGI [14] of 3.63 µM, a GI50 [15] of 0.00977 µM and a TGI [15] of 2.89 µM. It also gave a GI50 [16] of 1.64 µM, a TGI [16] of 6.32 µM and a GI50 [17] of 4.15 µM. The TGI [17] was 8.76 µM, the GI50 [18] was 2.13 µM and the TGI [18] was 11.1 µM. The GI50 [19] was 1.24 µM, the TGI [19] was 5.54 µM and the GI50 [20] was 3.81 µM. For the same compound, the TGI [20] was 7.35 µM, the GI50 [21] was 1.93 µM and the TGI [21] was 5.55 µM. It also gave a GI50 [22] of 4.35 µM, a TGI [22] of 18.9 µM and a GI50 [23] of 1.16 µM. It also gave a TGI [23] of 7.89 µM, a GI50 [24] of 1.91 µM and a TGI [24] of 5.81 µM. It also gave a GI50 [25] of 0.604 µM, a TGI [25] of 4.49 µM and a GI50 [26] of 0.479 µM. It also gave a TGI [26] of 3.32 µM, a GI50 [27] of 4.02 µM and a TGI [27] of 16 µM. For the same compound, the GI50 [28] was 0.945 µM, the TGI [28] was 4.82 µM and the GI50 [29] was 0.686 µM. The TGI [29] was 4.31 µM, the GI50 [30] was 0.161 µM and the TGI [30] was 2.56 µM. For the same compound, the GI50 [31] was 1.98 µM, the TGI [31] was 6.9 µM and the GI50 [32] was 1.09 µM. The TGI [32] was 25 µM, the GI50 [33] was 0.00981 µM and the TGI [33] was 0.725 µM. The GI50 [34] was 0.168 µM, the TGI [34] was 3.49 µM and the GI50 [35] was 2.23 µM. The TGI [35] was 7.99 µM, the GI50 [36] was 3.08 µM and the TGI [36] was 10.2 µM. It also gave a GI50 [37] of 0.0555 µM, a TGI [37] of 4.05 µM and a GI50 [38] of 3.33 µM. The TGI [38] was 7.08 µM, the GI50 [39] was 3.86 µM and the TGI [39] was 8.23 µM. It also gave a GI50 [40] of 1.1 µM, a TGI [40] of 5.98 µM and a GI50 [41] of 2.92 µM. It also gave a TGI [41] of 7.43 µM, a GI50 [42] of 1.42 µM and a TGI [42] of 5.9 µM. The GI50 [43] was 1.27 µM, the TGI [43] was 5.47 µM and the GI50 [44] was 3.12 µM. The TGI [44] was 6.86 µM, the GI50 [45] was 2.68 µM and the TGI [45] was 9.62 µM. For the same compound, the GI50 [46] was 0.682 µM, the TGI [46] was 1.86 µM and the GI50 [47] was 0.826 µM. It also gave a TGI [47] of 3.7 µM, a GI50 [48] of 0.621 µM and a TGI [48] of 5.09 µM. It also gave a GI50 [49] of 0.524 µM, a TGI [49] of 1.92 µM and a GI50 [50] of 2.64 µM. It also gave a TGI [50] of 7.59 µM, a GI50 [51] of 0.0124 µM and a TGI [51] of 2.66 µM. The GI50 [52] was 0.623 µM, the TGI [52] was 3.69 µM and the GI50 [53] was 0.403 µM. For the same compound, the TGI [53] was 4.88 µM, the GI50 [54] was 2.66 µM and the TGI [54] was 6.72 µM. For the same compound, the GI50 [55] was 3.37 µM, the TGI [55] was 6.92 µM and the GI50 [56] was 0.014 µM. The TGI [56] was 0.552 µM, the GI50 [57] was 1.45 µM and the TGI [57] was 6.1 µM. The GI50 [58] was 1.91 µM and the TGI [58] was 7.47 µM.
Compound O=S(=O)(Nc1ccccn1)c1ccc(N=Nc2ccc(O)c3ncccc23)cc1 has a GI50 [1] of 0.441 µM, a TGI [1] of 4.56 µM and a GI50 [2] of 1.7 µM. The TGI [2] was 6.59 µM, the GI50 [3] was 2.34 µM and the TGI [3] was 16 µM. The GI50 [4] was 1.29 µM, the TGI [4] was > 100 µM and the GI50 [5] was 2.98 µM. The TGI [5] was 8.7 µM, the GI50 [6] was 0.734 µM and the TGI [6] was > 37.7 µM. It also gave a GI50 [7] of 0.54 µM, a TGI [7] of 4.18 µM and a GI50 [8] of 2.96 µM. It also gave a TGI [8] of 10.8 µM, a GI50 [9] of 0.683 µM and a TGI [9] of 1.63 µM. The GI50 [10] was 0.77 µM, the TGI [10] was 2.61 µM and the GI50 [11] was 1.77 µM. For the same compound, the TGI [11] was 5.73 µM, the GI50 [13] was 1.05 µM and the TGI [13] was 8.4 µM. It also gave a GI50 [14] of 3.53 µM, a TGI [14] of 18.7 µM and a GI50 [15] of 0.647 µM. The TGI [15] was 19.3 µM, the GI50 [16] was 0.715 µM and the GI50 [17] was 3.42 µM. The TGI [17] was 13.6 µM, the GI50 [18] was 2.14 µM and the TGI [18] was 4.86 µM. For the same compound, the GI50 [19] was 1.14 µM, the TGI [19] was 8.88 µM and the GI50 [20] was 0.976 µM. It also gave a TGI [20] of 9.64 µM, a GI50 [21] of 2.82 µM and a TGI [21] of 7.31 µM. For the same compound, the GI50 [22] was 1.25 µM, the TGI [22] was 7.04 µM and the GI50 [23] was 0.582 µM. It also gave a TGI [23] of 3.03 µM, a GI50 [24] of 1.35 µM and a TGI [24] of 16.5 µM. It also gave a GI50 [25] of 0.891 µM, a TGI [25] of 4.59 µM and a GI50 [26] of 0.463 µM. For the same compound, the TGI [26] was 1.64 µM, the GI50 [27] was 0.771 µM and the TGI [27] was > 53.3 µM. The GI50 [28] was 1.65 µM, the TGI [28] was 14 µM and the GI50 [29] was 0.888 µM. The TGI [29] was 22.6 µM, the GI50 [30] was 0.638 µM and the TGI [30] was 8.41 µM. It also gave a GI50 [31] of 0.844 µM, a TGI [31] of 15.7 µM and a GI50 [32] of 1.37 µM. For the same compound, the TGI [32] was > 23.9 µM, the GI50 [33] was 4.53 µM and the TGI [33] was 19.3 µM. It also gave a GI50 [34] of 0.952 µM, a TGI [34] of 25.5 µM and a GI50 [35] of 0.748 µM. It also gave a TGI [35] of 27.7 µM, a GI50 [36] of 1.06 µM and a TGI [36] of 8.86 µM. The GI50 [37] was 1.39 µM, the TGI [37] was 8.02 µM and the GI50 [38] was 0.696 µM. The TGI [38] was 3.33 µM, the GI50 [39] was 1.02 µM and the TGI [39] was > 29.8 µM. For the same compound, the GI50 [40] was 1.21 µM, the TGI [40] was 5.55 µM and the GI50 [41] was 2.33 µM. It also gave a TGI [41] of 12.2 µM, a GI50 [42] of 1.24 µM and a TGI [42] of 11.9 µM. It also gave a GI50 [43] of 1.12 µM, a TGI [43] of 50.7 µM and a GI50 [44] of 0.388 µM. The TGI [44] was 7.04 µM, the GI50 [45] was 1.72 µM and the TGI [45] was 26 µM. It also gave a GI50 [46] of 1.13 µM, a TGI [46] of 11.4 µM and a GI50 [47] of 3.22 µM. The TGI [47] was 26.7 µM, the GI50 [48] was 3.73 µM and the TGI [48] was 18.4 µM. It also gave a GI50 [49] of 1.17 µM, a TGI [49] of 15 µM and a GI50 [50] of 1.02 µM. The TGI [50] was 12.8 µM, the GI50 [51] was 1.21 µM and the TGI [51] was 5.34 µM. It also gave a GI50 [52] of 0.418 µM, a TGI [52] of 2.14 µM and a GI50 [53] of 1.21 µM. For the same compound, the TGI [53] was > 95.2 µM, the GI50 [54] was 1.11 µM and the TGI [54] was 6.03 µM. It also gave a GI50 [55] of 0.675 µM, a TGI [55] of 3.33 µM and a GI50 [56] of 7.62 µM. It also gave a TGI [56] of 26.2 µM, a GI50 [57] of 0.735 µM and a TGI [57] of 16 µM. The GI50 [58] was 2.59 µM and the TGI [58] was 7.03 µM.
